Test results from US20060216363A1, “Novel herbal composition” (priority 2005, published 2006).

Columns and labels:
[1] = Free radical scavenger, SOD mimetic activity (xanthine/xanthine oxidase/NBT); format: biochemical; settings: reference agents; read-out: Concentration at 50 % Inhibition
Description: Conversion of xanthine to uric acid+O^−+NBT to formazan was then determined by measurement of absorbance at 595 nm and percent inhibition by superoxide dismutase or test compound was calculated.

chondrocyte = settings: Okazaki M, Osteoarthritis Cartilage 2003; cited from earlier work
chondrocytes [2] = assay: Nitric oxide determination (Griess) after fluid induced shear stress; format: cell-based, human; settings: for NO Concentration: pretreated two weeks, 0.01 mg/ml or glucosamine 1 mM
chondrocytes [3] = assay: Gene expressions (RT-PCR) of shear-stressed vs. non-shear-stressed chondrocytes; format: cell-based, human; settings: for Col I expression: glucosamine 1 mM
Description: Confluent cells were treated with various herbal combinations in F12/DMEM containing 5% FCS, 6.25 ug/ml bovine insulin, 25 ug/ml ascorbic acid and 100 nM Dexamethasone for 2 weeks with medium changed twice a week. At the end of each treatment, cells were washed with PBS and incubated in DMEM overnight. Cells were then exposed to fluid-induced shear stress by a custom-made cone viscometer at the rate of 100 rpm for 2 hours. The shear stress induced at this speed was 0.82 Pa (8.2 dyn/cm^2). […] Another set of cells was treated similarly without shearing as the control. The cells were washed with PBS, and RNA was extracted by Tri-Reagent (Sigma).
The RNA of cells was extracted with Tri-Reagent (Sigma). 800 ng of total RNA was reverse transcribed by Omniscript reverse transcriptase (Qiagen, Valencia, Calif.) in buffer containing 1 uM random primer, 0.5 mM each of dNTP, and 10 units of ribonuclease inhibitor. Reverse transcription was carried out at 37° C. for one hour by a programmable thermal controller (PTC-100, MJ Research, Inc., Watertown, Mass.). Reaction was terminated by raising the temperature to 93° C. for five minutes.
PCR was performed in a thermal controller (PTC-100, MJ Research, Inc., Watertown, Mass.) with master mix (HotStarTaq DNA polymerase, Qiagen) at initial denaturation at 95° C. for 15 minutes, followed by 25 cycles of 94° C. for 1 minute, 58° C. for 40 seconds, and 72° C. for 40 seconds. The final cycle extended 72° C. for 10 minutes. The PCR products accompanied by 100 bp ET marker were separated by 1.2% agarose gel, stained with ethidium bromide and visualized under UV light. A Polaroid picture was taken by Foto/Phoresis UV documentation system (Fotodyne Inc.). Beta-actin expression under the same experimental conditions was used as a reference to normalize the expressions.

MMP-2 = MMP-2 activities of chondrocyte culture supernatants by zymography; format: cell-based, human
Description: Confluent cells were treated with various herbal combinations in F12/DMEM containing 5% FCS, 6.25 ug/ml bovine insulin, 25 ug/ml ascorbic acid and 100 nM Dexamethasone for 2 weeks with medium changed twice a week. At the end of each treatment, cells were washed with PBS and incubated in DMEM overnight. Cells were then exposed to fluid-induced shear stress by a custom-made cone viscometer at the rate of 100 rpm for 2 hours. The shear stress induced at this speed was 0.82 Pa (8.2 dyn/cm^2). Aliquots of culture medium were collected at designated time for nitric oxide measurement and MMP zymography analysis. Another set of cells was treated similarly without shearing as the control.
Equal amount of protein of each culture medium was mixed with equal volume of 2× non-reducing SDS sample buffer, and incubated at room temperature for two hours for sample to denature. The samples were loaded into each well of a 10% SDS polyacrylamide gel containing 1 mg/ml of bovine gelatin (Sigma), and run at 20 mA in ice bath by a BioRad Mini Protean gel apparatus. After dye front reached the bottom of the gel, the gel was washed three times, 15 minutes each, with 2.5% Triton X-100. Then, the gel was renatured in developing buffer (50 mM Tris-HCl, pH7.6, 10 mM CaCl2, 50 mM NaCl, 0.05% Brij35) at 37° C. for 48 hours. […]

TIMP = TIMP activities of chondrocyte culture supernatants by reverse zymography; format: cell-based, human; settings: non-sheared
Description: Confluent cells were treated with various herbal combinations in F12/DMEM containing 5% FCS, 6.25 ug/ml bovine insulin, 25 ug/ml ascorbic acid and 100 nM Dexamethasone for 2 weeks with medium changed twice a week. At the end of each treatment, cells were washed with PBS and incubated in DMEM overnight. Cells were then exposed to fluid-induced shear stress by a custom-made cone viscometer at the rate of 100 rpm for 2 hours. The shear stress induced at this speed was 0.82 Pa (8.2 dyn/cm^2). […] Another set of cells was treated similarly without shearing as the control.
Equal amount of protein of each culture medium was mixed with equal volume of 2× non-reducing SDS sample buffer, and incubated at room temperature for two hours for sample to denature. The samples were loaded into each well of a 10% SDS polyacrylamide gel containing 1 mg/ml of bovine gelatin (Sigma) and 1 ml serum free 24 hour's culture supernatant of human foreskin dermal fibroblast which expressed MMP, and run at 20 mA in ice bath by a BioRad Mini Protean gel apparatus. After dye front reached the bottom of the gel, the gel was washed three times, 15 minutes each, with 2.5% Triton X-100. Then, the gel was renatured in developing buffer (50 mM Tris-HCl, pH7.6, 10 mM CaCl2, 50 mM NaCl, 0.05% Brij35) at 37° C. for 48 hours. […]

[4] = test system: bone marrow mesenchymal stem cells; assay: Micromass culture of bone marrow mesenchymal stem cells, staining for ALP, collagen and GAGs; format: cell-based, human; settings: 1 mM
Description: Herbal preparations were treated to cells grown in the induction medium in micromass culture for two weeks.
Human bone marrow mesenchymal stem cells were obtained from patients receiving total joint replacement with consent. The cells were cultured in DMEM containing 10% fetal calf serum (FCS), and 25 ug/ml Gentamicin (Gibco, Grand Island, N.Y.) (C-DMEM) at 37° C. under humidified atmosphere containing 5% CO2.
(§1) Ten ul of 1×10^7 cells in C-DMEM was seeded into the center of each well of 48 multiwell culture dish (Nunc, Roskilde, Danmark). Two hours later, 250 ul of F12/DMEM containing 5% FCS, 6.25 ug/ml bovine insulin, 25 ug/ml ascorbic acid and 100 nM Dexamethasone (induction medium) with various concentrations of herbal combinations or glucosamine (Sigma) was added. The media were changed twice a week for two weeks. At the end of the incubation, the media were changed with fresh DMEM. Twenty-four hours later, the media were collected for MMP zymography study and cells were fixed and stained for alkaline phosphatase (ALP), collagen or glycosaminoglycan using Naphthol AS-MX phosphate/Fast red, Sirius red, or Safranin O (Sigma), respectively.

chondrocytes [5] = assay: Micromass culture of chondrocytes, staining for ALP, collagen and GAGs; format: cell-based, human; settings: 1 mM, two weeks
Description: Cells were grown for two weeks before measuring. […] Row A, B: alkaline phosphatase (ALP) stained by Naphthol AS-MX phosphate/Fast red; row C, D: collagen stained by Sirius red; row E, F: glycosaminoglycan stained by Safranin O.
(§2) Human articular cartilage was obtained from patients who received total joint replacement with consent. The cartilage was digested with 1 mg/ml of Class 2 and Class 4 bacterial collagenase (Worthington Chemical, Freehold, N.J.) in DMEM containing 10% fetal calf serum (FCS) and 25 ug/ml Gentamicin (Gibco, Grand Island, N.Y.) (C-DMEM) at 37° C. overnight. The primary cells were plated at high density in 10 mm culture dish (Nunc, Roskilde, Danmark) in C-DMEM and cultured under humidified atmosphere containing 5% CO2 at 37° C.
as §1

chondrocytes [6] = assay: Micromass culture of chondrocytes, herbal preparations in combination with glucosamine; format: cell-based, human
Description: Expression was measured on micromass culture after cells grown for two weeks. Induction medium alone (left); with 0.1 mM glucosamine (middle); with 1 mM glucosamine (right). […] All the preparations were at 0.01 mg/ml. Row A, B: alkaline phosphatase (ALP) stained by Naphthol AS-MX phosphate/Fast red; row C, D: collagen stained by Sirius red; row E, F: glycosaminoglycans stained by Safranin O.
as §2, §1

[7] = target: T1, MMP-13 proenzyme (human recombinant) (Homo sapiens, UniProt P45452); assay: MMP-13 enzymatic assay; format: biochemical; settings: reference agents; read-out: Concentration at 50 % Inhibition
T1 construct: purchased Calbiochem 444248; host or cells: Sf9 cell
Description: MMP-13 proenzyme (human recombinant, expressed in Sf9 cell, Calbiochem Cat. 444248) was activated by p-aminophenylmercuric acetate for 60 minutes at 37° C. […] Enzyme activity was determined spectrofluorometrically by measuring the formation of fluorescent (7-methoxycoumarin-4-yl)acetyl-Pro-Leu-Gly.

[8] = target: T2, MMP-8 (collagenase-2, stimulated human neutrophils) (Homo sapiens, UniProt P22894); assay: MMP-8 enzymatic assay; format: biochemical; settings: reference agents; read-out: Concentration at 50 % Inhibition
T2 construct: purchased Calbiochem 444229; host or cells: natural protein from stimulated human neutrophils
T2 sequence (P22894 101-467): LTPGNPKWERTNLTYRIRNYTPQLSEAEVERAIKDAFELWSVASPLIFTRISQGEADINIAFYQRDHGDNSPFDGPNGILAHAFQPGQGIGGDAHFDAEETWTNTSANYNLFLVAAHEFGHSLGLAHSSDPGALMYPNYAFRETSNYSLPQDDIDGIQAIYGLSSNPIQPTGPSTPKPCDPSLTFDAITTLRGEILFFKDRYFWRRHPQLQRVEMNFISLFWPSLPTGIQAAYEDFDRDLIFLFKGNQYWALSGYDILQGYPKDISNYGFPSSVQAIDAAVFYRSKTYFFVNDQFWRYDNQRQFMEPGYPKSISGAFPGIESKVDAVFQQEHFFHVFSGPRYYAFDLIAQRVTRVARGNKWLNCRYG
Description: MMP-8 (collagenase-2, stimulated human neutrophils, Calbiochem Cat. 444229) was activated by p-aminophenylmercuric acetate for 60 minutes at 37° C. […] Enzyme activity was determined spectrofluorometrically by measuring the formation of fluorescent (7-methoxycoumarin-4-yl) acetyl-Pro-Leu-Gly.

[9] = target: T3, MMP-3 (stromelysin-1, human recombinant catalytic domain) (Homo sapiens, UniProt P08254); assay: MMP-3 enzymatic assay; format: biochemical; settings: reference agents; read-out: Concentration at 50 % Inhibition
T3 construct: MMP-3 (stromelysin-1, human recombinant catalytic domain from Calbiochem Cat. 444217); purchased Calbiochem 444217
T3 sequence (P08254 100-272 limits assumed): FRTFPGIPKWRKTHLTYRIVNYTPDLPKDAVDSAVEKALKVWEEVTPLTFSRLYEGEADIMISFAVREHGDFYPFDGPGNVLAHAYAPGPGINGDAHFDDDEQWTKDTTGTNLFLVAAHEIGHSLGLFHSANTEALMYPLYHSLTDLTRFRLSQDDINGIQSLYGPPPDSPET
Description: MMP-3 (stromelysin-1, human recombinant catalytic domain from Calbiochem Cat. 444217) was activated by p-aminophenylmercuric acetate for 60 minutes at 37° C. […] Enzyme activity was determined spectrofluorometrically by measuring the formation of fluorescent (7-methoxycoumarin-4-yl)acetyl-Pro-Leu-Gly.

O=C(O[C@@H]1Cc2c(O)cc(O)cc2O[C@@H]1c1ccc(O)c(O)c1)c1cc(O)c(O)c(O)c1 [(−)-Epicatechin gallate]
IC50 [1]: 6100 nM

CCOC(CN1C(=O)[C@](CC(=O)Nc2ccc(C)cc2)(NC(=O)Nc2ccc(C)cc2)c2ccccc21)OCC [AG-041R]
ALP activity (chondrocyte): suppressed ALP activity
expression of type II collagen, aggrecan and BMP-2 genes (chondrocyte): up-regulated
proteoglycan synthesis (chondrocyte): accelerated proteoglycan synthesis

N[C@H]1C(O)O[C@H](CO)[C@@H](O)[C@@H]1O (some centres unmarked) [glucosamine]
NO Concentration (chondrocytes [2]; Non-sheared, 0 h): 0.40 µM
NO Concentration (chondrocytes [2]; Non-sheared, 2 h): 0.00 µM
NO Concentration (chondrocytes [2]; Non-sheared, 4 h): 0.00 µM
NO Concentration (chondrocytes [2]; Non-sheared, 7 h): 0.00 µM
NO Concentration (chondrocytes [2]; Non-sheared, 24 h): 0.00 µM
NO Concentration (chondrocytes [2]; Non-sheared, (2 h)): 0.17 µM
NO Concentration (chondrocytes [2]; Sheared, 0 h): 4.58 µM
NO Concentration (chondrocytes [2]; Sheared, 2 h): 4.75 µM
NO Concentration (chondrocytes [2]; Sheared, 4 h): 4.58 µM
NO Concentration (chondrocytes [2]; Sheared, 7 h): 4.42 µM
NO Concentration (chondrocytes [2]; Sheared, 24 h): 4.72 µM
NO Concentration (chondrocytes [2]; Sheared, (2 h)): 0.85 µM
inhibition of NO production (chondrocytes [2]; fluid induced shear stress 100 rpm (0.82 Pa), two hours): 55%
aggrecanase expression (chondrocytes [3]; non-shear-stressed): inhibited aggrecanase expression
expression of aggrecan (chondrocytes [3]; non-shear-stressed): inhibited the expression of aggrecan significantly
BMP-2 expression (chondrocytes [3]; non-sheared): inhibited its expression completely
Col I expression (chondrocytes [3]; non-sheared): inhibited Col I expression significantly
BMP-2 expression (chondrocytes [3]; shear-stressed): showed less activity
aggrecanase expression (chondrocytes [3]; shear-stressed): slight increase in aggrecanase expression
expression of aggrecan (chondrocytes [3]; shear-stressed): slightly increased aggrecan expression
MMP-2 expression (chondrocytes [3]; shear-stressed and non-shear-stressed): not to be affected
Col I expression (chondrocytes [3]; sheared): no effect
active and latent forms of MMP-2 (68 K, 72 K bands) (MMP-2; non-sheared): showed same profiles as controls
active and latent forms of MMP-2 (68 K, 72 K bands) (MMP-2; sheared): showed same profiles as controls
TIMP (41 K band, >118 K band) (TIMP): decrease of TIMP
ALP [4]: did not show significant effects
GAGs synthesis [4]: did not show significant effects
collagen synthesis [4]: did not show significant effects
ALP (chondrocytes [5]; Naphthol AS-MX phosphate/Fast red): did not show effects
GAGs (chondrocytes [5]; Safranin O): did not show effects
Collagen (chondrocytes [5]; Sirius red): did not show effects
baseline GAG synthesis (chondrocytes [6]; 0.1 mM glucosamine): slightly increased
baseline collagen synthesis (chondrocytes [6]; 0.1 mM glucosamine): slightly increased
effect of glucosamine on the activity of herbal preparations (chondrocytes [6]; glucosamine 0.1 or 1 mM, preparations 0.01 mg/ml): did not affect the activity of herbal preparations

TIMP-1: tissue inhibitor of matrix metalloproteinase, comparison agent in the MMP assays
IC50 [7]: 6.8 nM
IC50 [8]: 3.9 nM
IC50 [9]: 7.6 nM
